The values that follow come from US20220184075A1, “PHARMACEUTICAL COMPOSITION CONTAINING HDAC6 INHIBITOR AS ACTIVE INGREDIENT FOR PREVENTION OR TREATMENT OF ITCHING” (BNH RESEARCH CO.,LTD., priority 2018, published 2022).

The target of test [1] is T1, HDAC6 (Homo sapiens, UniProt Q9UBN7).
T1 sequence (Q9UBN7 1-1215): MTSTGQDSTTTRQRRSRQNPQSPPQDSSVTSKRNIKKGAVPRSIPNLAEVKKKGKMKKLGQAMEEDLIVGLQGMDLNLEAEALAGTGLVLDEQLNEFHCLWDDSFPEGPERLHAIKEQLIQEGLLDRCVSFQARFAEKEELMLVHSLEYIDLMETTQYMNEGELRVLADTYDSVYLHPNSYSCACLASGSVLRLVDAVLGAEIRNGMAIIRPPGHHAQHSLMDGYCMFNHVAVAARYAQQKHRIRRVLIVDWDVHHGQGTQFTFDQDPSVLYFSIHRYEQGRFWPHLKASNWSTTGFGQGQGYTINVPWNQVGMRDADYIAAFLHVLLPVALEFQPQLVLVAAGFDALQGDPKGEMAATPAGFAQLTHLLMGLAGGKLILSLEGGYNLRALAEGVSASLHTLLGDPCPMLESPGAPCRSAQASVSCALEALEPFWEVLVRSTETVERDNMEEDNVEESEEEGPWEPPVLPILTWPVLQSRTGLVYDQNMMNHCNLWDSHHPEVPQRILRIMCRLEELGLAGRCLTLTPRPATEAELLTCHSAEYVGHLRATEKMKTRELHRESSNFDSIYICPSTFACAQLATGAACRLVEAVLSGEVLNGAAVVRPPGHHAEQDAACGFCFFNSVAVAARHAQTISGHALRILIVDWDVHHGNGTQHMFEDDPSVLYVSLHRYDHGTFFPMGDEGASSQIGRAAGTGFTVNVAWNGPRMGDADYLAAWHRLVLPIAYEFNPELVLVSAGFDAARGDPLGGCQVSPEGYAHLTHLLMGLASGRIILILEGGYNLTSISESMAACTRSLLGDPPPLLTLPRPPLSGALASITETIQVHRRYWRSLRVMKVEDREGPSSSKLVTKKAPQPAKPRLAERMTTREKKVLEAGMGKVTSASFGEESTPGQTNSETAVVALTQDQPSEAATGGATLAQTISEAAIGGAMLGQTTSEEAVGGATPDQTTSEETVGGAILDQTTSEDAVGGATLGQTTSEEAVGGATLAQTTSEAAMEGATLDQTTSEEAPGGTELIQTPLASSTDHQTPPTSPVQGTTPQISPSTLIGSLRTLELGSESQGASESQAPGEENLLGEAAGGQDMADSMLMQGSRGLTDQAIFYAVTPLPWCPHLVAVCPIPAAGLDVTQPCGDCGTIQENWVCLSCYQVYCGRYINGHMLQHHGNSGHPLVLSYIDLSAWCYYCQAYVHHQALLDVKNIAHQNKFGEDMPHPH
The following applies: cited from earlier work; for Selectivity: HDAC6 inhibitor selectivity, in words; for IC50: HDAC6 inhibitor.

For test [2], the system named is trypsin-induced itching (scratching behavior). Nature of the test: Trypsin-induced scratching behavior in mice (cheek injection, bouts counted for 30 minutes). Format: in vivo, Male C57BL/6 mice. The following applies: for number of scratching bouts compared with the only trypsin-injected mice: co-injected with 200 μg trypsin into skin of shaved right cheek, 30 minutes, 7.4 μg tubastatin A HCl or 61.4 ng M344, unpaired t-test. As to the method: Male C57BL/6 mice (6-week-old) were divided into groups of 3 to 5 animals, and isolated under a 12-hour light/dark cycle while being allowed to freely access water and food. Trypsin is diluted in phosphate buffered saline (PBS) to have the working concentration. […] All drug-containing stock solutions were stored in a freezer at −20 □, dissolved immediately prior to the behavioral experiment, and diluted with PBS to the final working concentration. For behavioral experiments, the right cheek of all mice was shaved, and the drug was injected after the acclimation period in an observation chamber for 2 days (2 hours/day) prior to the experiment date and 1 hour on the day of the experiment. The mice were subdued by being gently grabbed by a hand without anesthesia for drug treatment. All drugs were injected into the skin layer of the shaved right cheek at 20 μL using a 31-G insulin syringe. After returning to the observation chamber, all mice were videotaped for 30 minutes immediately after drug injection to evaluate itching behavior. For the behavioral experiment, the action of scratching the drug-injected site with a hind leg, and then placing the leg on the ground again or licking the site with a mouth was counted as 1 bout. All behavioral experiments were evaluated by testers in a blinded drug test. Statistical analysis for the experiments was performed using an unpaired t-test, and P<0.05 or P<0.01 was considered statistically significant (*: P<0.05; **: P<0.01). Data was expressed as mean±standard error (SEM).

The term IC50 denotes the concentration at which inhibition is half-maximal.

In the case of `O=C(NO)c1cnc(NC2(c3cccc(F)c3)CCCCC2)nc1` [ACY-775], in test [1], the Selectivity result was “Very high” and the IC50 is 0.0075 µM.
In the case of `O=C(NO)C1=CCCC1` [BRD9757], in test [1], the Selectivity result was “Very high” and the IC50 is 0.03 µM.
On to `CN(C)c1ccc(C(=O)NCCCCCCC(=O)NO)cc1` [M344], for which, in test [1], the Selectivity result is given as “High” and the IC50 is 0.088 µM. In test [2], the “number of scratching bouts compared with the only trypsin-injected mice” value is “statistically significant smaller number of scratching bouts”.
With `CN1CCc2c(c3ccccc3n2Cc2ccc(C(=O)NO)cc2)C1` [Tubastatin A, tubastatin A], the “number of scratching bouts compared with the only trypsin-injected mice” value in test [2] is “statistically significant smaller number of scratching bouts”.
Turning to trypsin, in test [2] (200 μg trypsin alone injected into cheek skin of normal mice, FIG. 1), the “scratching bouts for 30 minutes” value is recorded as “approximately 100 bouts”.
